# Assay results from US9387202B2, “Pyridone amides and analogs exhibiting anti-cancer and anti-proliferative activities” (priority 2011, dated 2016).
# What was measured:
# [1] = biological target: T1, Phospho-MET in MKN-45 cells (Homo sapiens, UniProt P08581); experiment: MKN-45 Phospho-MET ELISA; assay type: cell-based
# T1 construct: host or cells: MKN-45
# Protocol: MKN-45 cells (catalog #JCRB0254) were obtained from the Japan Health Science Research Resources Bank, Osaka, Japan. Briefly, cells were grown in RPMI 1640 media supplemented with 10% characterized fetal bovine serum (Invitrogen, Carlsbad, Calif.) at 37° C., 5% CO2, 95% humidity. Cells were allowed to expand until reaching 70-95% confluency at which point they were subcultured or harvested for assay use.
# Twenty-five thousand cells in RPMI-1640 supplemented with 10% characterized fetal bovine serum (Invitrogen, Carlsbad, Calif.) were added per well in a 96-well black clear bottom plate (Corning, Corning, N.Y.). Cells were then incubated overnight at 37 degrees Celsius, 5% CO2, 95% humidity. Media was then aspirated and cells were washed with PBS. A serial dilution of test compound was dispensed into another 96-well black clear bottom plate (Corning, Corning, N.Y.) containing serum-free RPMI-1640. Compound was added to plates containing cells and incubated for 6 hours at 37 degrees Celsius, 5% CO2, 95% humidity. Cells were stimulated with 40 ng/mL HGF (R&D Systems, Minneapolis, Minn.) for 10 minutes, and then lysed. Phospho-MET in cell lysates was detected using the DuoSet IC Human Phospho-HGF R/c-MET ELISA (R&D Systems, Minneapolis, Minn.). Data was analyzed using Prism software (Graphpad, San Diego, Calif.) to calculate IC50 values.
# MET (Y1248C) Mutant = MET (Y1248C) Mutant (Homo sapiens, UniProt P08581, Y1230C); experiment: Mutant MET kinase biochemical assay, Y1248C; conditions: for Fold potency decrease versus Example 1, MET (Y1248C) Mutant: relative to Example 1 = 1; for Fold potency decrease versus Example 2, MET (Y1248C) Mutant: relative to Example 2 = 1
# [2] = biological target: T2, c-MET kinase (Seq. ID No. 2), cMET WT (Homo sapiens, UniProt P08581); experiment: c-MET kinase assay (WT MET biochemical assay); conditions: for Fold potency decrease versus Example 1, cMET WT: relative to Example 1 = 1; for Fold potency decrease versus Example 2, cMET WT: relative to Example 2 = 1
# T2 construct: c-MET (c-MET residues: 956-1390, from Invitrogen, catalogue #PV3143, 6 nM); purchased Invitrogen PV3143
# Protocol: Activity of c-MET kinase (Seq. ID No. 2) was determined by following the production of ADP from the kinase reaction through coupling with the pyruvate kinase/lactate dehydrogenase system (e.g., Schindler et al. Science 2000, 289, pp. 1938-1942). In this assay, the oxidation of NADH (thus the decrease at A340 nm) was continuously monitored spectrophotometrically. The reaction mixture (100 μl) contained c-MET (c-MET residues: 956-1390, from Invitrogen, catalogue #PV3143, 6 nM), polyE4Y (1 mg/mL), MgCl2 (10 mM), pyruvate kinase (4 units), lactate dehydrogenase (0.7 units), phosphoenol pyruvate (1 mM), and NADH (0.28 mM) in 90 mM Tris buffer containing 0.25 mM DTT, 0.2% octyl-glucoside and 1% DMSO, pH 7.5. Test compounds were incubated with c-MET (Seq. ID No. 2) and other reaction reagents at 22° C. for 0.5 h before ATP (100 μM) was added to start the reaction. The absorption at 340 nm was monitored continuously for 2 hours at 30° C. on Polarstar Optima plate reader (BMG). The reaction rate was calculated using the 1.0 to 2.0 h time frame. Percent inhibition was obtained by comparison of reaction rate with that of a control (i.e., with no test compound). IC50 values were calculated from a series of percent inhibition values determined at a range of inhibitor concentrations using software routines as implemented in the GraphPad Prism software package.
# MET (D1246H) Mutant = MET (D1246H) Mutant (Homo sapiens, UniProt P08581, D1228H); experiment: Mutant MET kinase biochemical assay, D1246H; conditions: for Fold potency decrease versus Example 1, MET (D1246H) Mutant: relative to Example 1 = 1; for Fold potency decrease versus Example 2, MET (D1246H) Mutant: relative to Example 2 = 1
# [3] = tested on: oncogenic Mutant MET kinase; experiment: various oncogenic Mutant MET kinase biochemical assays (summarised); conditions: range over columns 3-6; for Fold less potent than Example 1 in the various oncogenic Mutant MET kinase biochemical assays: relative to Example 1; for Fold less potent than Example 2 in the various oncogenic Mutant MET kinase biochemical assays: relative to Example 2
# [4] = biological target: T3, Phospho-MET in EBC-1 cells (Homo sapiens, UniProt P08581); experiment: EBC-1 Phospho-MET ELISA; assay type: cell-based
# T3 construct: host or cells: EBC-1
# Protocol: EBC-1 cells (catalog #JCRB0820) were obtained from the Japan Health Science Research Resources Bank, Osaka, Japan. Briefly, cells were grown in DMEM supplemented with 10% characterized fetal bovine serum (Invitrogen, Carlsbad, Calif.) at 37° C., 5% CO2, 95% humidity. Cells were allowed to expand until reaching 70-95% confluency at which point they were subcultured or harvested for assay use.
# Fifteen thousand cells in DMEM supplemented with 0.5% characterized fetal bovine serum (FBS; Invitrogen, Carlsbad, Calif.) were added per well in a 96-well black clear bottom plate (Corning, Corning, N.Y.). Cells were then incubated overnight at 37 degrees Celsius, 5% CO2, 95% humidity. A serial dilution of test compound was dispensed into another 96-well black clear bottom plate (Corning, Corning, N.Y.) containing DMEM supplemented with 0.5% FBS. Diluted compound was then added to plates containing cells and incubated for 6 hours at 37 degrees Celsius, 5% CO2, 95% humidity. Cells were stimulated with 40 ng/mL HGF (R&D Systems, Minneapolis, Minn.) for 10 minutes, and then lysed. Phospho-MET in cell lysates was detected using the DuoSet IC Human Phospho-HGF R/c-MET ELISA (R&D Systems, Minneapolis, Minn.). Data was analyzed using Prism software (Graphpad, San Diego, Calif.) to calculate IC50 values.
# MET (D1246N) Mutant = MET (D1246N) Mutant (Homo sapiens, UniProt P08581, D1228N); experiment: Mutant MET kinase biochemical assay, D1246N; conditions: for Fold potency decrease versus Example 1, MET (D1246N) Mutant: relative to Example 1 = 1; for Fold potency decrease versus Example 2, MET (D1246N) Mutant: relative to Example 2 = 1
# A549 cells = experiment: A549 HGF-stimulated MET-dependent cell migration assay; assay type: cell-based
# MET (Y1248H) Mutant = MET (Y1248H) Mutant (Homo sapiens, UniProt P08581, Y1230H); experiment: Mutant MET kinase biochemical assay, Y1248H; conditions: for Fold potency decrease versus Example 1, MET (Y1248H) Mutant: relative to Example 1 = 1; for Fold potency decrease versus Example 2, MET (Y1248H) Mutant: relative to Example 2 = 1
# [5] = relative to Example 1 = 1, listed as the '229 Compound
# [6] = relative to Example 2 = 1, listed as the '229 Compound
# MET (D1246H) Mutant, sequence (P08581 25-1408 isoform P08581-2 D1246H limits assumed): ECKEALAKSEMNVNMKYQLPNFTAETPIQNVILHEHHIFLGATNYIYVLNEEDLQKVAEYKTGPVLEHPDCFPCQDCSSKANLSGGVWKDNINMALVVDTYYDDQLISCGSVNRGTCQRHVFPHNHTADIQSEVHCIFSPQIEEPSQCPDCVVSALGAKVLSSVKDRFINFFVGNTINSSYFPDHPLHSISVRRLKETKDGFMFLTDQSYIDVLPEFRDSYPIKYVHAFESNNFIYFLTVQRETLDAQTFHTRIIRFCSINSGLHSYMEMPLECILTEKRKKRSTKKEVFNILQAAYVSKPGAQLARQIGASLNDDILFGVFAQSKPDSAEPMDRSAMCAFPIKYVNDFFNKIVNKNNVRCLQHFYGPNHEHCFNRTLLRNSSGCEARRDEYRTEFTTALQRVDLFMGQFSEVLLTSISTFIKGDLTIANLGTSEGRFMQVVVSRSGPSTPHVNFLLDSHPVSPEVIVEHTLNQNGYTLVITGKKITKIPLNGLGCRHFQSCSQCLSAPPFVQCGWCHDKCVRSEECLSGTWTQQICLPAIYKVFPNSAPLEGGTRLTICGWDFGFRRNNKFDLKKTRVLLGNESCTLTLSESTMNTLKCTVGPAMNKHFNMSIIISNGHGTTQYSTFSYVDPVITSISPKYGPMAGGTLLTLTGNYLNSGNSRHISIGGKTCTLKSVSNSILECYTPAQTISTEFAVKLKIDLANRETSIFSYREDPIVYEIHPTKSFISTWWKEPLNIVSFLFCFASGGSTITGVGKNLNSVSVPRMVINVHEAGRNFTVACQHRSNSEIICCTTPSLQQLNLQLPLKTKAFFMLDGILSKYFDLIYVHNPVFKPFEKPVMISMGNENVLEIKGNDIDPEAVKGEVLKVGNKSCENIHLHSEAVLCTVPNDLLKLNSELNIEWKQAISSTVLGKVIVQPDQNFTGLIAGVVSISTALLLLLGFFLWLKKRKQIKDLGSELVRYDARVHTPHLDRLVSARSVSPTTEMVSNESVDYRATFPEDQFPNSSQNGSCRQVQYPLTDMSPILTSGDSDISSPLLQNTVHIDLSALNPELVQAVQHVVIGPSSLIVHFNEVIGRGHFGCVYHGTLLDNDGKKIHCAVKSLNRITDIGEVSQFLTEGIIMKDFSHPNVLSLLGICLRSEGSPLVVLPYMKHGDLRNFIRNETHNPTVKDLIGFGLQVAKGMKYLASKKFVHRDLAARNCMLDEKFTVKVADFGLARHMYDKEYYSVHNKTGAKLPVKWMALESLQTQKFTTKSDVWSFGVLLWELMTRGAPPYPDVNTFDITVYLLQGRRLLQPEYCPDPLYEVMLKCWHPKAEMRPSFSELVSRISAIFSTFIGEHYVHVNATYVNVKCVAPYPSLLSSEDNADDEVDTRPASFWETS
# MET (Y1248C) Mutant, sequence (P08581 25-1408 isoform P08581-2 Y1248C limits assumed): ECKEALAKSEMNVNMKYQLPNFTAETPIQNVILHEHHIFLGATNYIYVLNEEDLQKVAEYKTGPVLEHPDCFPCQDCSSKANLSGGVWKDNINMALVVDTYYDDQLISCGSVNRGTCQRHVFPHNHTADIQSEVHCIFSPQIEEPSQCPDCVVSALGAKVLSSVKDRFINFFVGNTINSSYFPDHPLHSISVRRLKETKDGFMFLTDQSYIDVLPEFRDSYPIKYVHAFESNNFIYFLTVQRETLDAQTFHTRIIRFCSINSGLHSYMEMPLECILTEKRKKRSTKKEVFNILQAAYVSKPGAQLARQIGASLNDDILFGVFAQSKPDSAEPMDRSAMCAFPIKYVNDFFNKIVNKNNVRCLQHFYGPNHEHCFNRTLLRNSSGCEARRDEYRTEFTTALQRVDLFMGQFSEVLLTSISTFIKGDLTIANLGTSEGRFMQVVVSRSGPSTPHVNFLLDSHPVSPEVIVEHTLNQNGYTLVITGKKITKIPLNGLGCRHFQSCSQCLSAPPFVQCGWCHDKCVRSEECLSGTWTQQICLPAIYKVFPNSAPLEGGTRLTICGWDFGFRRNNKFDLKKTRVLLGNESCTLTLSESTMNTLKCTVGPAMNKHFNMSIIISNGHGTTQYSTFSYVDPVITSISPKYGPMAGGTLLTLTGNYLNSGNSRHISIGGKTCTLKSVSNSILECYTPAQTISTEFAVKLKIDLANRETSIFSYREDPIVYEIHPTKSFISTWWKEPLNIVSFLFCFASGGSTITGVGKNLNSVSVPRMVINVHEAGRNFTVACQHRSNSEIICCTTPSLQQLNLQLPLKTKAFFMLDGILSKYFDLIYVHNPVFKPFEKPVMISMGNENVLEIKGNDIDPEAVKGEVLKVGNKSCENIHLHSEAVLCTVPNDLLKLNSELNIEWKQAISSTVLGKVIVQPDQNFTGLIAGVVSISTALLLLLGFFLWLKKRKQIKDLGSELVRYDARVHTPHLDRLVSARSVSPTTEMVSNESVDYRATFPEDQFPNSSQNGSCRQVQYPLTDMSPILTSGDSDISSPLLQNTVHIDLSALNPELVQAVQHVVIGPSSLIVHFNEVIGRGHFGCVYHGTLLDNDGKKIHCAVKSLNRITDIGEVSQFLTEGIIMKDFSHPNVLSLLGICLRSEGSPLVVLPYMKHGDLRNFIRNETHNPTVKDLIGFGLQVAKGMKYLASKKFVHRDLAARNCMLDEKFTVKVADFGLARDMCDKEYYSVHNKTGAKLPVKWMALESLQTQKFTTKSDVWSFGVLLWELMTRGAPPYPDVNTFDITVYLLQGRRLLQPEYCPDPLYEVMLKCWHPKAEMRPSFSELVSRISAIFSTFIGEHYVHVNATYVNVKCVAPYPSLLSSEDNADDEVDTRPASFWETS
# T1 sequence (P08581 25-1390): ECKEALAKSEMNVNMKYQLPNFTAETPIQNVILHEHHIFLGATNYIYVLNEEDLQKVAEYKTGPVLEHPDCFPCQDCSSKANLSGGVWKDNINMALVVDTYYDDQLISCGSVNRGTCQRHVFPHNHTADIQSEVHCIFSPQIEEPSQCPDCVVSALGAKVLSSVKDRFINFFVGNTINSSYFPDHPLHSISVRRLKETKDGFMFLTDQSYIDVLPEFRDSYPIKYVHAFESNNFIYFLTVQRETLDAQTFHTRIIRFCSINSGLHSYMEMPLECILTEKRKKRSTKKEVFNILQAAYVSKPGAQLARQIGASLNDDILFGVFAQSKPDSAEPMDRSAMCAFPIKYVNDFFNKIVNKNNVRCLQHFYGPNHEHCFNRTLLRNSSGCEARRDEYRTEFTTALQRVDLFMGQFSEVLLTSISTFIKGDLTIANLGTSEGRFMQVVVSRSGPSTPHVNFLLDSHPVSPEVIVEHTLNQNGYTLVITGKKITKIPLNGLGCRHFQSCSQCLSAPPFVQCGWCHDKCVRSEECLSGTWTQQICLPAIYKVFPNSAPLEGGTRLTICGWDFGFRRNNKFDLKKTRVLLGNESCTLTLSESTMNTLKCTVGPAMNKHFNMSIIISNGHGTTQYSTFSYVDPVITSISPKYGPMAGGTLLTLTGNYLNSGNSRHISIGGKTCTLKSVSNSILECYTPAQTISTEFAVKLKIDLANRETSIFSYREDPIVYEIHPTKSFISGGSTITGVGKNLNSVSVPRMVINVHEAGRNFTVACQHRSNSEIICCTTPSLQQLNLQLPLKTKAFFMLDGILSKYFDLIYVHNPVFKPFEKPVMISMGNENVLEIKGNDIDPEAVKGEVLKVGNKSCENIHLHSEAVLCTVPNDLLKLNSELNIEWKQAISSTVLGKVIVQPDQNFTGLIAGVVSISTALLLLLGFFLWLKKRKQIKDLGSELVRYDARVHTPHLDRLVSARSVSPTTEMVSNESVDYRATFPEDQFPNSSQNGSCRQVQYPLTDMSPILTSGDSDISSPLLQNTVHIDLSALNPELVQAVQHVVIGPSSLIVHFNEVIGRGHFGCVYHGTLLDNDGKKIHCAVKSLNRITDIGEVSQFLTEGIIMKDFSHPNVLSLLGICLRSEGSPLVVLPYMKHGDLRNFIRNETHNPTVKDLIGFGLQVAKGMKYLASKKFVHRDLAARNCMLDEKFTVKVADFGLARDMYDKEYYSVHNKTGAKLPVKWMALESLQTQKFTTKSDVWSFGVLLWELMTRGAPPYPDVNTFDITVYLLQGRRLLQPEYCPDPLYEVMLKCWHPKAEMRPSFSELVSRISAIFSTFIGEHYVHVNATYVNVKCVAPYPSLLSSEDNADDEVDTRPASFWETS
# T2 sequence (P08581 with tags, fused parts or gaps): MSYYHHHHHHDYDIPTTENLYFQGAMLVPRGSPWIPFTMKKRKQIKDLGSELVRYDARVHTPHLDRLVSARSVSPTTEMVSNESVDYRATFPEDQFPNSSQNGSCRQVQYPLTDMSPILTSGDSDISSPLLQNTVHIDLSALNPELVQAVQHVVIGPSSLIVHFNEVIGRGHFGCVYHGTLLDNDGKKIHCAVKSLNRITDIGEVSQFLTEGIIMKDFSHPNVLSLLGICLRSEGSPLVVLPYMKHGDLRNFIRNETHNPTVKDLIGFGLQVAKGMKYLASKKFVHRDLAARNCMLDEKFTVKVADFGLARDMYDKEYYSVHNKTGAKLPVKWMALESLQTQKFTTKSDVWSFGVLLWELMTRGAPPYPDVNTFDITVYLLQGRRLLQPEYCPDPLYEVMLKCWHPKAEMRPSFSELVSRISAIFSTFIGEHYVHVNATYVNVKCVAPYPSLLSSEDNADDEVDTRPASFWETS
Compound,"Fold potency decrease versus Example 1, MKN-45 p-MET ([1]; relative to Example 1 = 1)","Fold potency decrease versus Example 2, MKN-45 p-MET ([1]; relative to Example 2 = 1)","Fold potency decrease versus Example 1, MET (Y1248C) Mutant (MET (Y1248C) Mutant)","Fold potency decrease versus Example 2, MET (Y1248C) Mutant (MET (Y1248C) Mutant)","Fold potency decrease versus Example 1, cMET WT [2]","Fold potency decrease versus Example 2, cMET WT [2]","Fold potency decrease versus Example 1, MET (D1246H) Mutant (MET (D1246H) Mutant)","Fold potency decrease versus Example 2, MET (D1246H) Mutant (MET (D1246H) Mutant)",Fold less potent than Example 1 in the various oncogenic Mutant MET kinase biochemical assays [3],Fold less potent than Example 2 in the various oncogenic Mutant MET kinase biochemical assays [3],"Fold potency decrease versus Example 1, EBC-1 p-MET ([4]; relative to Example 1 = 1)","Fold potency decrease versus Example 2, EBC-1 p-MET ([4]; relative to Example 2 = 1)","Fold potency decrease versus Example 1, MET (D1246N) Mutant (MET (D1246N) Mutant)","Fold potency decrease versus Example 2, MET (D1246N) Mutant (MET (D1246N) Mutant)","Fold potency decrease versus Example 1, A549 MIG (A549 cells; relative to Example 1 = 1)","Fold potency decrease versus Example 2, A549 MIG (A549 cells; relative to Example 2 = 1)","Fold potency decrease versus Example 1, MET (Y1248H) Mutant (MET (Y1248H) Mutant)","Fold potency decrease versus Example 2, MET (Y1248H) Mutant (MET (Y1248H) Mutant)",also measured
"CCOc1ccn(-c2ccc(F)cc2)c(=O)c1C(=O)Nc1cc(F)c(Oc2ccnc(N)c2)cc1F [Compound A, N-(4-((2-aminopyridin-4-yl)oxy)-2,5-difluorophenyl)-4-ethoxy-1-(4-fluorophenyl)-2-oxo-1,2-dihydropyridine-3-carboxamide]",18.8 ×,18.8 ×,6×,5.7×,2.4 ×,2.7 ×,6.7×,4×,2.6-6.7 ×,4-18.3 ×,11.7 ×,21.5 ×,4.4×,5.7×,3.4 ×,8.9 ×,2.6×,18.3×,
"CCOc1ccn(-c2ccc(F)cc2)c(=O)c1C(=O)Nc1cc(F)c(Oc2ccnc(NC(C)=O)c2)cc1F [Example 1, N-(4-((2-acetamidopyridin-4-yl)oxy)-2,5-difluorophenyl)-4-ethoxy-1-(4-fluorophenyl)-2-oxo-1,2-dihydropyridine-3-carboxamide]",1 ×,,1 ×,,1 ×,,1 ×,,,,1 ×,,1 ×,,1 ×,,1 ×,,
"CCOc1ccn(-c2ccc(F)cc2)c(=O)c1C(=O)Nc1cc(F)c(Oc2ccnc(NC(=O)CC)c2)cc1F [Example 2, N-(2,5-difluoro-4-((2-propionamidopyridin-4-yl)oxy)phenyl)-4-ethoxy-1-(4-fluorophenyl)-2-oxo-1,2-dihydropyridine-3-carboxamide]",,1 ×,,1 ×,,1 ×,,1 ×,,,,1 ×,,1 ×,,1 ×,,1 ×,
CCOc1ccn(-c2ccc(F)cc2)c(=O)c1C(=O)Nc1ccc(Oc2ccnc(N)c2Cl)c(F)c1 [The ′229 Compound],73.8×,73.7×,3.8×,3.6×,3.9×,4.4×,8.5×,5.1×,2.3-8.5 ×,2.5-15.7 ×,22.5×,41.5×,2×,2.5×,2.4×,6.3×,2.3×,15.7×,"Fold potency decrease versus Example 1, MKN-45 p-MET [1, 5]: 73.8 ×; Fold potency decrease versus Example 2, MKN-45 p-MET [1, 6]: 73.7 ×; Fold potency decrease versus Example 1, cMET WT ([2]; listed as the '229 Compound): 3.9 ×; Fold potency decrease versus Example 2, cMET WT ([2]; listed as the '229 Compound): 4.4 ×; Fold potency decrease versus Example 1, EBC-1 p-MET [4, 5]: 22.5 ×; Fold potency decrease versus Example 2, EBC-1 p-MET [4, 6]: 41.5 ×; Fold potency decrease versus Example 1, A549 MIG (A549 cells; [5]): 2.4 ×; Fold potency decrease versus Example 2, A549 MIG (A549 cells; [6]): 6.3 ×"
